Tests used:
[1] = tested on: Human Dermal Microvascular Endothelial Cells (HDMVEC); assay: Growth inhibition of HDMVEC cells, MTT, 7 days; format: cell-based; details: Endothelial cell, HDMVEC growth, procedures of Example 3, read-out: Inhibitory Effect (IC50 Value)
Method: To measure the inhibitory activity of (2) on growth of HDMVEC cells (Clonetics, San Diego, Calif.), 2,000 cells were seeded in each well of a 96-well plate in […] of EGM medium (Clonetics) supplemented with 5% fetal bovine serum (Sigma). The plate was incubated at 37° C. in a tissue culture incubator for 24 h, and then various concentrations of (2) dissolved in EGM were added to each well in 5-10 μl aliquots. Four wells were used for each concentration. Medium in each well was renewed with fresh test solution added every other day. After 7 days of culture, the viable cells were measured using reagents from an MTT kit (Promega Corporation, Madison, Wis.), using instructions provided by the supplier. The number of viable cells in treated wells relative to those in control wells gave the percentage of inhibition.
The procedures of Example 3 were carried out to evaluate the inhibitory effect of various compounds of the invention on the growth of HDMVEC cells (Clonetics, San Diego, Calif.).

[2] = tested on: human endometrial Ishikawa cells; assay: Estrogenic activity, alkaline phosphatase, Ishikawa cell-based assay; details: 72 hours
Method: Ishikawa cell based assays were run in parallel on human endometrial Ishikawa cells treated with compound (2) or with 2-methoxyestradiol. 2-Methoxyestradiol is a compound reported in the literature as an anti-angiogenic agent. Cells were cultured in 96-well plates for 48 hours in estrogen- and phenol red-free medium (DMEM/Hamm's F12 medium) containing 5% fetal bovine serum stripped of endogenous estrogens with dextran coated charcoal (Sigma). Compound (2) or other test compounds were then added to the cells and culturing was continued for an additional 72 hours. To the control cells (no (2)), 10^−9 M of […] was added. At the end of 72 hours, alkaline phosphatase activity was measured by adding 5 mM p-nitrophenyl phosphate, 0.24 mM MgCl2, and 1 M diethanolamine (pH 9.8) to the cells while the 96-well plates were kept on ice. The plates were then warmed to room temperature, and the yellow color from the production of p-nitrophenol was measured after 2-3 hours using an ELISA plate reader at a wavelength of 405 nm. The estrogenic activity was defined as the alkaline phosphatase activity stimulated by the test compounds alone as a percentage of that stimulated by estradiol at 10^−9 M. Stimulation by estradiol at 10^−9 M was taken as 100%.

[3] = tested on: HIF-1α protein in PC-3 prostate cancer cells; assay: HIF-1α protein expression by immunoblotting, PC-3 cells; format: cell-based, human; details: PC-3, same hypoxic/anoxic conditions as for (2)
Method: (§1) Hypoxia experiments were performed in either of two ways. To produce a very low ambient oxygen concentration (effectively anoxia), we used a protocol in which cells were incubated in a 5% CO2-air atmosphere at 37° C. overnight and then placed in aluminum gas-exchange chambers maintained at 37° C. (Laderoute K R et al. Mol Cell Biol 22: 2515-2523, (2002); Laderoute K R et al. Mol Cell Biol 24: 4128-4137, (2004)). The chambers containing the cells were then placed in a 37° C. circulating water bath and the original atmosphere was repeatedly exchanged with 5% CO2-95% N2 using a manifold equipped with a vacuum pump and a gas cylinder. Atmospheric oxygen partial pressure (pO2) values of less than or equal to 0.01% (relative to air at pO2 of about 21%) can be achieved inside the chambers using this system. Following various hypoxic exposures, the chambers were opened an anaerobic glove box (Bactron X, Sheldon Manufacturing Inc., Cornelius, Oreg.; attached to a cylinder containing 5% CO2-95% N2) to prepare cell lysates without significant reoxygenation. All manipulations of hypoxic cells were performed in the anaerobic glove box. Atmospheric oxygen levels in both the chambers and the glove box have been measured and calibrated using a polarographic oxygen electrode (Oxygen Sensors, Inc., Norristown, Pa.). Hypoxia experiments involving a pO2 of 1% were performed by equilibrating the glove box with an atmosphere of 1% O2 5% CO2 95% N2 held at 37° C. with a circulating fan. Cells were incubated inside a humidified space in the glove box and the medium on the cells was gently and continually agitated by using a rotary shaker. For these experiments, we used RAW 264.7 immortalized mouse macrophages as normal control cells, PC-3 prostate cancer cells, and MDA-MB-231 breast cancer cells, all available from ATCC.
(§2) We used immunoblotting to evaluate the experiments. Nuclear lysates were used to detect HIF-1α protein by immunoblotting (Murphy B J et al. Biochem Biophys Res Commun (In Press): 2005). Briefly, cells were placed on ice in air or on Super Ice® cold packs in the anaerobic glove box and the medium was removed. […] After spinning at 9,000×g for 5 min at 4° C., the protein concentrations of the supernatants were determined by using a bicinchoninic acid assay (Pierce Biotechnology). […] Primary antibody binding was detected and visualized by using the ECL Plus Western Blotting Detection System (Amersham Pharmacia Biotech) according to the supplier's instructions. HIF-1α protein was detected by using an anti-HIF-1α monoclonal antibody (Novus Biologicals, Cat. No. NB100-123; diluted 1:500) and a horseradish peroxidase-conjugated anti-mouse IgG secondary antibody (Santa Cruz Biotechnology, Cat. No. sc-2062; diluted 1:20,000). […]

[4] = tested on: HIF-1α protein in MDA-MB-231 human breast carcinoma cells; assay: HIF-1α protein expression by immunoblotting, MDA-MB-231 cells; format: cell-based; details: MDA-MB-231, same hypoxic/anoxic conditions as for (2)
Method: as §1, with “Hypoxia experiments involving a pO2 of 1% were performed by equilibrating the glove box with an atmosphere of 1% O2 5% CO2 95% N2 held at 37° C. with a circulating fan. Cells were incubated inside a humidified space in the glove box and the medium on the cells was gently and continually agitated by using a rotary shaker. For these experiments, we used RAW 264.7 immortalized mouse macrophages as normal control cells, PC-3 prostate cancer cells, and MDA-MB-231 breast cancer cells, all available from ATCC.” left out
as §2, with “experiments.” for “experiments. Nuclear lysates were used to detect HIF-1α protein by immunoblotting (Murphy B J et al. Biochem Biophys Res Commun (In Press): 2005). Briefly, cells were placed on ice in air or on Super Ice® cold packs in the anaerobic glove box and the medium was removed.”

C[C@@H]1Cc2cc(O)ccc2C2CCC3(C)C(CCOCCN(C)C)CCC3C21 (some centres unmarked)
IC50 [1]: 4000 nM

CN(C)CCOC/C=C1\CCC2C3CCc4cc(O)ccc4C3CCC12C (centres unmarked)
IC50 [1]: 1800 nM

CCN(CC)Cc1ccc(OC/C=C2\CCC3C4C(CCC23C)c2ccc(O)cc2C[C@H]4C)c(OC)c1 (some centres unmarked)
IC50 [1]: 1500 nM

CCN(CC)Cc1ccc(OCCC2CCC3C4C(CCC23C)c2ccc(O)cc2C[C@H]4C)c(OC)c1 (some centres unmarked)
IC50 [1]: 2000 nM

CCN(CC)Cc1ccc(OCCC2CCC3C4CCc5cc(O)ccc5C4CCC23C)c(OC)c1 (centres unmarked)
IC50 [1]: 2000 nM

COc1cc(CO)ccc1OCCC1CCC2C3C(CCC12C)c1ccc(O)cc1C[C@H]3C (some centres unmarked)
IC50 [1]: 5000 nM

CCN(CC)Cc1cc(OC)c(OCCC2CCC3C4C(CCC23C)c2ccc(O)cc2C[C@H]4C)c(OC)c1 (some centres unmarked)
IC50 [1]: 3600 nM

COc1cc(CN2CCCC2)ccc1OCCC1CCC2C3C(CCC12C)c1ccc(O)cc1C[C@H]3C (some centres unmarked)
IC50 [1]: 1200 nM

COc1cc(CN2CCCCC2)ccc1OCCC1CCC2C3C(CCC12C)c1ccc(O)cc1C[C@H]3C (some centres unmarked)
IC50 [1]: 600 nM

CCN(CC)Cc1ccccc1OC/C=C1\CCC2C3C(CCC12C)c1ccc(O)cc1C[C@H]3C (some centres unmarked)
IC50 [1]: 4700 nM

COC(=O)/C=C/c1ccc(OC/C=C2\CCC3C4C(CCC23C)c2ccc(O)cc2C[C@H]4C)cc1 (some centres unmarked)
IC50 [1]: 5300 nM

C[C@@H]1Cc2cc(O)ccc2C2CCC3(C)C(CCOc4ccc(C=O)cc4Cl)CCC3C21 (some centres unmarked)
IC50 [1]: 10000 nM

COc1cc2c(cc1O)CC[C@@H]1[C@@H]2CC[C@]2(C)[C@@H](O)CC[C@@H]12 [2-methoxyestradiol, 2-Methoxyestradiol, reference compound]
estrogenic activity (alkaline phosphatase stimulation relative to estradiol at 10^−9 M) [2]: large amount of estrogenic activity | HIF-1α protein expression, standard HIF-1 inhibitors [3]: did not find any effect | HIF-1α protein expression, standard HIF-1 inhibitors [4]: did not find any effect

OCc1ccc(-c2nn(Cc3ccccc3)c3ccccc23)o1 [YC-1, reference compound]
HIF-1α protein expression, standard HIF-1 inhibitors [3]: did not find that YC-1, another standard HIF-1 inhibitor, could reproducibly inhibit | HIF-1α protein expression, standard HIF-1 inhibitors [4]: did not find that YC-1, another standard HIF-1 inhibitor, could reproducibly inhibit

— patent US20120252773A1, “Method and composition for inhibiting cell proliferation and angiogenesis” (priority 2005, published 2012)
